The results in this text go back to patent US11226340B2, “Therapeutically triggering an innate immune response in a target tissue” (priority 2016, dated 2022).

Assay [1] concerns B16 melanoma. As to the kind of experiment: STING agonist combined with SSI in B16 melanoma lung model. It counts as in vivo, mouse. To be noted: day +14. How it is done: The anti-tumour efficacy of QBKPN SSI in combination with the STING agonist 2′2′-cGMAP (inVivoGen) was evidenced in C57Bl/6 mice, as follows. On ˜day −31, mice were infected with K. pneumoniae (2.5×10^5 cells/mouse) by oropharyngeal instillation after being anaesthetized with isofluorane, then rested. Within 5-7 days, all mice were fully recovered from K. pneumonia challenge. Starting on day −10, some mice were S.C. injected with QBKPN SSI; mice were injected every other day from Day −10 to day +12. Injections were performed in rotating sites at a dose of 0.03 ml of a 5.0 OD suspension. On days −10, −6, and −4, some mice were also treated with STING agonist (SC injection of 10 μg/mouse in 20 μl of saline), either co-mixed with SSI or s.c. in a distal site (nape). On Day 0, mice were challenged with B16 melanoma by tail-vein (I.V.) injection of singlecell suspensions of tumour cells (2.0×10^5 cells/mouse). On day +14, plasma was collected for ELISA, then mice were sacrificed and visual metastases counted and recorded. Serum was collected into heparin-containing tubes, then centrifuged to remove cells. ELISA (RND Systems DuoSet DY485, limit of detection […]) was performed per the manufacturer's protocol. […] Statistical differences were evaluated by unpaired T test (GraphPad PRISM).

Assay [2] deals with B16 melanoma. As to the kind of experiment: Cancer antigen (gp100) potentiation in B16 melanoma lung model. It counts as in vivo, mouse. To be noted: K. pneumoniae-pre-exposed mice; day +14.

For the compound `Nc1nc2c(ncn2[C@@H]2O[C@@H]3COP(=O)(O)O[C@@H]4[C@H](O)C(COP(=O)(O)O[C@@H]2C3O)O[C@H]4n2cnc3c(N)ncnc32)c(=O)[nH]1` (stereo partly drawn) [STING agonist, 2′2′-cGMAP], in the assay on B16 melanoma [1] (K. pneumoniae-pre-exposed mice), the “tumour burden (tumour nodules in the lungs)” value was “reduced tumour burden (p=0.0038)”. For the same compound, in the assay on B16 melanoma [1], the “circulating (plasma) levels of IFN-γ” value was “enhanced circulating levels of IFN-γ”.
With “KVPRNQDWL [gp100, melanoma-specific antigen gp100 25-33 peptide]”, the “tumour burden (metastatic-like B16 melanoma in the lungs)” value in the assay on B16 melanoma [2] was “no significant effect”.
